Laboratory results: ChEMBL document CHEMBL3885881, “DrugMatrix”

Species: Rattus norvegicus
Experiment: DrugMatrix - Regimen: Daily Repeat
Assay type: toxicity, organism-based, Sprague-Dawley
Set-up: regimen Daily Repeat, gender Male, age 6-8 weeks
Settings: in vivo, po, route oral GAVAGE, vehicle .5 % CMC; for BASOPHIL / EOSINOPHIL / ERYTHROCYTE COUNT / HEMATOCRIT / HEMOGLOBIN / LEUKOCYTE COUNT / LYMPHOCYTE / MEAN CORPUSCULAR HEMOGLOBIN / MEAN CORPUSCULAR HEMOGLOBIN CONCENTRATION / MEAN CORPUSCULAR VOLUME / MONOCYTE / NEUTROPHIL / PLATELET COUNT: tissue Blood; for ALANINE AMINOTRANSFERASE / ALBUMIN / ALKALINE PHOSPHATASE / ASPARTATE AMINOTRANSFERASE / BLOOD UREA NITROGEN / CHLORIDE / CHOLESTEROL / CREATINE PHOSPHOKINASE / CREATININE / GLUCOSE / PHOSPHORUS / POTASSIUM / SODIUM / TOTAL BILIRUBIN / TOTAL PROTEIN: tissue Plasma
[1] = 0 mg/kg, 72 h, dose level Control, time 3 day
[2] = 0 mg/kg, 120 h, dose level Control, time 5 day
[3] = 38 mg/kg, 72 h, dose level Low, time 3 day

For CCCNC(=O)NS(=O)(=O)c1ccc(Cl)cc1 [CHLORPROPAMIDE], the BASOPHIL [1] was 0%, the EOSINOPHIL [1] was 0.33% and the “ERYTHROCYTE COUNT” value [1] was 6.2 x10E6/uL. The HEMATOCRIT [1] was 38.08%, the HEMOGLOBIN [1] was 14.92 G/DL and the “LEUKOCYTE COUNT” value [1] was 11.13 x10E3/uL. The LYMPHOCYTE [1] was 76%, the “MEAN CORPUSCULAR HEMOGLOBIN” value [1] was 24.1 pg and the “MEAN CORPUSCULAR HEMOGLOBIN CONCENTRATION” value [1] was 39.17 G/DL. The “MEAN CORPUSCULAR VOLUME” value [1] was 61.48 fL, the MONOCYTE [1] was 3.83% and the NEUTROPHIL [1] was 19.83%. For the same compound, the “PLATELET COUNT” value [1] was 1327.5 x10E3/uL, the “ALANINE AMINOTRANSFERASE” value [1] was 40.17 u/L and the ALBUMIN [1] was 4.07 G/DL. The “ALKALINE PHOSPHATASE” value [1] was 372 u/L, the “ASPARTATE AMINOTRANSFERASE” value [1] was 67.17 u/L and the “BLOOD UREA NITROGEN” value [1] was 18.83 mg/dL. The CHLORIDE [1] was 105.17 MEQ/L, the CHOLESTEROL [1] was 78.17 mg/dL and the “CREATINE PHOSPHOKINASE” value [1] was 149.17 u/L. It also gave a CREATININE [1] of 0.57 mg/dL, a GLUCOSE [1] of 185.17 mg/dL and a PHOSPHORUS [1] of 11.43 mg/dL. For the same compound, the POTASSIUM [1] was 6.78 MEQ/L, the SODIUM [1] was 152.83 MEQ/L and the “TOTAL BILIRUBIN” value [1] was 0.4 mg/dL. The “TOTAL PROTEIN” value [1] was 6.87 G/DL, the BASOPHIL [2] was 0% and the EOSINOPHIL [2] was 0%. For the same compound, the “ERYTHROCYTE COUNT” value [2] was 6.05 x10E6/uL, the HEMATOCRIT [2] was 36.55% and the HEMOGLOBIN [2] was 14.7 G/DL. The “LEUKOCYTE COUNT” value [2] was 11.8 x10E3/uL, the LYMPHOCYTE [2] was 86.83% and the “MEAN CORPUSCULAR HEMOGLOBIN” value [2] was 24.37 pg. The “MEAN CORPUSCULAR HEMOGLOBIN CONCENTRATION” value [2] was 40.32 G/DL, the “MEAN CORPUSCULAR VOLUME” value [2] was 60.47 fL and the MONOCYTE [2] was 0.83%. The NEUTROPHIL [2] was 12.33%, the “PLATELET COUNT” value [2] was 1177 x10E3/uL and the “ALANINE AMINOTRANSFERASE” value [2] was 41.83 u/L. For the same compound, the ALBUMIN [2] was 3.75 G/DL, the “ALKALINE PHOSPHATASE” value [2] was 377.5 u/L and the “ASPARTATE AMINOTRANSFERASE” value [2] was 60.83 u/L. For the same compound, the “BLOOD UREA NITROGEN” value [2] was 16 mg/dL, the CHLORIDE [2] was 105.67 MEQ/L and the CHOLESTEROL [2] was 67.83 mg/dL. For the same compound, the “CREATINE PHOSPHOKINASE” value [2] was 120.33 u/L, the CREATININE [2] was 0.6 mg/dL and the GLUCOSE [2] was 167.67 mg/dL. It also gave a PHOSPHORUS [2] of 10.03 mg/dL, a POTASSIUM [2] of 6.68 MEQ/L and an SODIUM [2] of 150.5 MEQ/L. For the same compound, the “TOTAL BILIRUBIN” value [2] was 0.57 mg/dL, the “TOTAL PROTEIN” value [2] was 6.25 G/DL and the BASOPHIL [3] was 0%. The EOSINOPHIL [3] was 0%, the “ERYTHROCYTE COUNT” value [3] was 5.72 x10E6/uL and the HEMATOCRIT [3] was 35.8%. For the same compound, the HEMOGLOBIN [3] was 13.93 G/DL, the “LEUKOCYTE COUNT” value [3] was 12.2 x10E3/uL and the LYMPHOCYTE [3] was 81%. The “MEAN CORPUSCULAR HEMOGLOBIN” value [3] was 24.4 pg, the “MEAN CORPUSCULAR HEMOGLOBIN CONCENTRATION” value [3] was 38.9 G/DL and the “MEAN CORPUSCULAR VOLUME” value [3] was 62.73 fL. For the same compound, the MONOCYTE [3] was 1.67%, the NEUTROPHIL [3] was 17.33% and the “PLATELET COUNT” value [3] was 1327 x10E3/uL. For the same compound, the “ALANINE AMINOTRANSFERASE” value [3] was 39.33 u/L, the ALBUMIN [3] was 3.73 G/DL and the “ALKALINE PHOSPHATASE” value [3] was 318.67 u/L. The “ASPARTATE AMINOTRANSFERASE” value [3] was 61.33 u/L, the “BLOOD UREA NITROGEN” value [3] was 14.33 mg/dL and the CHLORIDE [3] was 105.67 MEQ/L. For the same compound, the CHOLESTEROL [3] was 77.33 mg/dL, the “CREATINE PHOSPHOKINASE” value [3] was 126.33 u/L and the CREATININE [3] was 0.57 mg/dL. It also gave a GLUCOSE [3] of 180.33 mg/dL, a PHOSPHORUS [3] of 11.27 mg/dL and a POTASSIUM [3] of 6.7 MEQ/L. For the same compound, the SODIUM [3] was 151.33 MEQ/L, the “TOTAL BILIRUBIN” value [3] was 0.33 mg/dL and the “TOTAL PROTEIN” value [3] was 6.07 G/DL.
